According to US20240384350A1, “METHODS OF TREATING CANCER WITH KINASE INHIBITORS” (BOARD OF REGENTS, THE UNIVERSITY OF TEXAS SYSTEM, priority 2021, published 2024):

Assays:
Assay in all cases: Ba/F3 drug screening, Cell Titer Glo, IC50 Mut/WT
Type in all cases: cell-based
[1] = molecular target: T1, EGFR L858R T790M L792H (Homo sapiens, UniProt P00533, L792H/L858R/T790M); conditions: T790M-like-3S, 72 hours
T1 construct: expressed in transfected cells; host or cells: Ba/F3

[2] = molecular target: T2, EGFR L747_K754del insATSPE (Homo sapiens, UniProt P00533, DEL747-749/K754E); conditions: T790M-like-3S, 72 hours
T2 construct: expressed in transfected cells; host or cells: Ba/F3 cells, retroviral pBabe-Puro vector

[3] = molecular target: T3, EGFR E709A (Homo sapiens, UniProt P00533, E709A); conditions: PACC; E709A; Ba/F3; 72 hours
T3 construct: expressed in transfected cells; host or cells: Ba/F3

[4] = molecular target: T4, EGFR G719A T790M (Homo sapiens, UniProt P00533, G719A/T790M); conditions: T790M-like-3S, 72 hours
T4 construct: expressed in transfected cells; host or cells: Ba/F3

[5] = molecular target: T5, EGFR S768dupSVD (Homo sapiens, UniProt P00533, DUP768-770); conditions: Ex20, 72 hours
T5 construct: expressed in transfected cells; host or cells: Ba/F3 cells, retroviral pBabe-Puro vector
Protocol: (§1) Data represent the ratio of the IC50 value for a given TKI for cells with an ex20ins EGFR mutation to the IC50 value for cells with wildtype EGFR.
(§2) Ba/F3 cell generation, drug screening, and IC50 approximations. Ba/F3 cells were obtained as a gift from Dr. Gordon Mills (MD Anderson Cancer Center), and maintained in RPMI (Sigma) containing 10% FBS, 1% penicillin/streptomycin, and 10 ng/ml recombinant mIL-3 (R&D Biosystems). To establish stable Ba/F3 cell lines, Ba/F3 cells were transduced with retroviruses containing mutant EGFR plasmids for 12-24 hours.
(§3) After 48-72 hours of transduction, 2 μg/ml puromycin (Invitrogen) was added to Ba/F3 cell lines in complete RPMI. To select for EGFR positive cell lines, cells were stained with PE-EGFR (Biolegend) and sorted by FACS. After sorting, EGFR positive cells were maintained in RPMI containing 10% FBS, 1% penicillin/streptomycin, and 1 ng/ml EGF to support cell viability. Drug screening was performed as previously described^41,42. Shortly, cells were plated in 384-well plates (Greiner Bio-One) at 2000-3000 cells per well in technical triplicate. Seven different concentrations of TKIs or DMSO vehicle were added to reach a final volume of 40 μL per well. After 72 hours, 11 μL of Cell Titer Glo (Promega) was added to each well. Plates were incubated for a minimum of 10 minutes, and bioluminescence was determined using a FLUOstar OPTIMA plate reader (BMG LABTECH). Raw bioluminescence values were normalized to DMSO control treated cells, and values were plotted in GraphPad Prism. […] Drug screens were performed in technical triplicate on each plate and either duplicate or triplicate biological replicates. […] Statistical differences between groups were determined by ANOVA as described in the figure legends.

[6] = molecular target: T6, EGFR L858R S784F (Homo sapiens, UniProt P00533, L858R/S784F); conditions: Classical-Like, 72 hours
T6 construct: expressed in transfected cells; host or cells: Ba/F3 cells, retroviral pBabe-Puro vector (vector made by GeneScript from EGFR L858R)

[7] = molecular target: T7, EGFR A763insFQEA (Homo sapiens, UniProt P00533, INS763FQEA); conditions: Classical-Like, 72 hours
T7 construct: expressed in transfected cells; host or cells: Ba/F3 cells, retroviral pBabe-Puro vector
Protocol: (§4) Data represent the ratio of the IC50 value for a given TKI for cells with a classical-like EGFR mutation to the IC50 value for cells with wildtype EGFR.
as §2
(§5) After 48-72 hours of transduction, 2 μg/ml puromycin (Invitrogen) was added to Ba/F3 cell lines in complete RPMI. To select for EGFR positive cell lines, cells were stained with PE-EGFR (Biolegend) and sorted by FACS. After sorting, EGFR positive cells were maintained in RPMI containing 10% FBS, 1% penicillin/streptomycin, and 1 ng/ml EGF to support cell viability. […] Shortly, cells were plated in 384-well plates (Greiner Bio-One) at 2000-3000 cells per well in technical triplicate. Seven different concentrations of TKIs or DMSO vehicle were added to reach a final volume of 40 μL per well. After 72 hours, 11 μL of Cell Titer Glo (Promega) was added to each well. Plates were incubated for a minimum of 10 minutes, and bioluminescence was determined using a FLUOstar OPTIMA plate reader (BMG LABTECH). Raw bioluminescence values were normalized to DMSO control treated cells, and values were plotted in GraphPad Prism. […] Drug screens were performed in technical triplicate on each plate and either duplicate or triplicate biological replicates.

[8] = molecular target: T8, EGFR Ex19del/T790M/L792H (Homo sapiens, UniProt P00533, DEL746-750/L792H/T790M); conditions: T790M-like-3R, 72 hours
T8 construct: expressed in transfected cells; host or cells: Ba/F3

[9] = molecular target: T9, EGFR N771dupN G724S (Homo sapiens, UniProt P00533, DUP771-771/G724S); conditions: Ex20, 72 hours
T9 construct: expressed in transfected cells; host or cells: Ba/F3 cells, retroviral pBabe-Puro vector (vector made by GeneScript from EGFR G724S, c.2313_2314insAAC)

[10] = molecular target: T10, EGFR E709A G719S (Homo sapiens, UniProt P00533, E709A/G719S); conditions: PACC; E709A G719S; Ba/F3; 72 hours
T10 construct: expressed in transfected cells; host or cells: Ba/F3

[11] = molecular target: T11, EGFR L858R L718Q (Homo sapiens, UniProt P00533, L718Q/L858R); conditions: PACC; L858R L718Q; Ba/F3; 72 hours
T11 construct: host or cells: Ba/F3

[12] = molecular target: T12, EGFR T790M (Homo sapiens, UniProt P00533, T790M); conditions: T790M-like-3S, 72 hours
T12 construct: expressed in transfected cells; host or cells: Ba/F3
Protocol: (§6) Data represent the ratio of the IC50 value for a given TKI for cells with a T790M-like-3S EGFR mutation to the IC50 value for cells with wildtype EGFR.
as §2
(§7) After 48-72 hours of transduction, 2 μg/ml puromycin (Invitrogen) was added to Ba/F3 cell lines in complete RPMI. To select for EGFR positive cell lines, cells were stained with PE-EGFR (Biolegend) and sorted by FACS. After sorting, EGFR positive cells were maintained in RPMI containing 10% FBS, 1% penicillin/streptomycin, and 1 ng/ml EGF to support cell viability. Drug screening was performed as previously described^41,42. Shortly, cells were plated in 384-well plates (Greiner Bio-One) at 2000-3000 cells per well in technical triplicate. Seven different concentrations of TKIs or DMSO vehicle were added to reach a final volume of 40 μL per well. After 72 hours, 11 μL of Cell Titer Glo (Promega) was added to each well. Plates were incubated for a minimum of 10 minutes, and bioluminescence was determined using a FLUOstar OPTIMA plate reader (BMG LABTECH). Raw bioluminescence values were normalized to DMSO control treated cells, and values were plotted in GraphPad Prism. […] Drug screens were performed in technical triplicate on each plate and either duplicate or triplicate biological replicates.

[13] = molecular target: T13, EGFR N771dupN (Homo sapiens, UniProt P00533, DUP771-771); conditions: Ex20, 72 hours
T13 construct: expressed in transfected cells; host or cells: Ba/F3 cells, retroviral pBabe-Puro vector
Protocol: as §1, §2, §3

[14] = molecular target: T14, EGFR G719S T790M (Homo sapiens, UniProt P00533, G719S/T790M); conditions: T790M-like-3S, 72 hours
T14 construct: expressed in transfected cells; host or cells: Ba/F3

[15] = molecular target: T15, EGFR V774M (Homo sapiens, UniProt P00533, V774M); conditions: PACC; V774M; Ba/F3; 72 hours
T15 construct: host or cells: Ba/F3

[16] = molecular target: T16, EGFR Ex19del L718Q (Homo sapiens, UniProt P00533, DEL746-750/L718Q); conditions: PACC; Ex19del L718Q; Ba/F3; 72 hours
T16 construct: expressed in transfected cells; host or cells: Ba/F3
Protocol: Data represent the ratio of the IC50 value for a given TKI for cells with a PACC EGFR mutation to the IC50 value for cells with wildtype EGFR.
as §2, §7

[17] = molecular target: T17, EGFR L858R/T790M/L718Q (Homo sapiens, UniProt P00533, L718Q/L858R/T790M); conditions: T790M-like-3R, 72 hours
T17 construct: expressed in transfected cells; host or cells: Ba/F3

[18] = molecular target: T18, EGFR L833F (Homo sapiens, UniProt P00533, L833F); conditions: Classical-Like, 72 hours
T18 construct: expressed in transfected cells; host or cells: Ba/F3 cells, retroviral pBabe-Puro vector

[19] = molecular target: T19, EGFR Ex19del/T790M/G724S (Homo sapiens, UniProt P00533, DEL746-750/G724S/T790M); conditions: T790M-like-3S, 72 hours
T19 construct: expressed in transfected cells; host or cells: Ba/F3

[20] = molecular target: T20, EGFR H773insNPH (Homo sapiens, UniProt P00533, INS773NPH); conditions: Ex20, 72 hours
T20 construct: expressed in transfected cells; host or cells: Ba/F3 cells, retroviral pBabe-Puro vector

[21] = molecular target: T21, EGFR Ex19del T790M (Homo sapiens, UniProt P00533, DEL746-750/T790M); conditions: T790M-like-3S, 72 hours
T21 construct: expressed in transfected cells; host or cells: Ba/F3

[22] = molecular target: T22, EGFR D761N (Homo sapiens, UniProt P00533, D761N); conditions: Classical-Like, 72 hours
T22 construct: expressed in transfected cells; host or cells: Ba/F3 cells, retroviral pBabe-Puro vector
Protocol: as §4, §2, §5

[23] = molecular target: T23, EGFR E709K G719S (Homo sapiens, UniProt P00533, E709K/G719S); conditions: PACC; E709K G719S; Ba/F3; 72 hours
T23 construct: expressed in transfected cells; host or cells: Ba/F3

[24] = molecular target: T24, EGFR Ex19del T790M L718V (Homo sapiens, UniProt P00533, DEL746-750/L718V/T790M); conditions: T790M-like-3S, 72 hours
T24 construct: expressed in transfected cells; host or cells: Ba/F3
Protocol: as §6, §2, §7

[25] = molecular target: T25, EGFR S720P (Homo sapiens, UniProt P00533, S720P); conditions: Classical-Like, 72 hours
T25 construct: expressed in transfected cells; host or cells: Ba/F3 cells, retroviral pBabe-Puro vector (vector made by GeneScript from EGFR WT)

[26] = molecular target: T26, EGFR Ex19del G796S (Homo sapiens, UniProt P00533, DEL746-750/G796S); conditions: PACC; Ex19del G796S; Ba/F3; 72 hours
T26 construct: expressed in transfected cells; host or cells: Ba/F3

[27] = molecular target: T27, EGFR Ex19del T790M C797S (Homo sapiens, UniProt P00533, C797S/DEL746-750/T790M); conditions: T790M-like-3R, 72 hours
T27 construct: expressed in transfected cells; host or cells: Ba/F3
Protocol: Data represent the ratio of the IC50 value for a given TKI for cells with a T790M-like-3R EGFR mutation to the IC50 value for cells with wildtype EGFR.
as §2
After 48-72 hours of transduction, 2 μg/ml puromycin (Invitrogen) was added to Ba/F3 cell lines in complete RPMI. To select for EGFR positive cell lines, cells were stained with PE-EGFR (Biolegend) and sorted by FACS. After sorting, EGFR positive cells were maintained in RPMI containing 10% FBS, 1% penicillin/streptomycin, and 1 ng/ml EGF to support cell viability. […] Shortly, cells were plated in 384-well plates (Greiner Bio-One) at 2000-3000 cells per well in technical triplicate. Seven different concentrations of TKIs or DMSO vehicle were added to reach a final volume of 40 μL per well. After 72 hours, 11 μL of Cell Titer Glo (Promega) was added to each well. Plates were incubated for a minimum of 10 minutes, and bioluminescence was determined using a FLUOstar OPTIMA plate reader (BMG LABTECH). Raw bioluminescence values were normalized to DMSO control treated cells, and values were plotted in GraphPad Prism. […] Drug screens were performed in technical triplicate on each plate and either duplicate or triplicate biological replicates. […] Statistical differences between groups were determined by ANOVA as described in the figure legends.

ratio of IC50 for cells with mutant EGFR to IC50 for cells with wildtype EGFR (Mut/WT) [1]: 5.198
ratio of IC50 for cells with mutant EGFR to IC50 for cells with wildtype EGFR (Mut/WT) [2]: 4.874
ratio of IC50 for cells with mutant EGFR to IC50 for cells with wildtype EGFR (Mut/WT) [3]: 0.4803
ratio of IC50 for cells with mutant EGFR to IC50 for cells with wildtype EGFR (Mut/WT) [4]: 0.6778
ratio of IC50 for cells with mutant EGFR to IC50 for cells with wildtype EGFR (Mut/WT) [5]: 0.3065
ratio of IC50 for cells with mutant EGFR to IC50 for cells with wildtype EGFR (Mut/WT) [6]: 0.001643
ratio of IC50 for cells with mutant EGFR to IC50 for cells with wildtype EGFR (Mut/WT) [7]: 0.05463
ratio of IC50 for cells with mutant EGFR to IC50 for cells with wildtype EGFR (Mut/WT) [8]: 74.97
ratio of IC50 for cells with mutant EGFR to IC50 for cells with wildtype EGFR (Mut/WT) [9]: 0.8301
ratio of IC50 for cells with mutant EGFR to IC50 for cells with wildtype EGFR (Mut/WT) [10]: 0.1143
ratio of IC50 for cells with mutant EGFR to IC50 for cells with wildtype EGFR (Mut/WT) [11]: 0.3655
ratio of IC50 for cells with mutant EGFR to IC50 for cells with wildtype EGFR (Mut/WT) [12]: 4.92
ratio of IC50 for cells with mutant EGFR to IC50 for cells with wildtype EGFR (Mut/WT) [13]: 7.062
ratio of IC50 for cells with mutant EGFR to IC50 for cells with wildtype EGFR (Mut/WT) [14]: 3.949
ratio of IC50 for cells with mutant EGFR to IC50 for cells with wildtype EGFR (Mut/WT) [15]: 0.2507
ratio of IC50 for cells with mutant EGFR to IC50 for cells with wildtype EGFR (Mut/WT) [16]: 0.09651
ratio of IC50 for cells with mutant EGFR to IC50 for cells with wildtype EGFR (Mut/WT) [17]: 304.5
ratio of IC50 for cells with mutant EGFR to IC50 for cells with wildtype EGFR (Mut/WT) [18]: 0.07887
ratio of IC50 for cells with mutant EGFR to IC50 for cells with wildtype EGFR (Mut/WT) [19]: 4.197
ratio of IC50 for cells with mutant EGFR to IC50 for cells with wildtype EGFR (Mut/WT) [20]: 11.56
ratio of IC50 for cells with mutant EGFR to IC50 for cells with wildtype EGFR (Mut/WT) [21]: 14.38
ratio of IC50 for cells with mutant EGFR to IC50 for cells with wildtype EGFR (Mut/WT) [22]: 0.1319
ratio of IC50 for cells with mutant EGFR to IC50 for cells with wildtype EGFR (Mut/WT) [23]: 0.06517
ratio of IC50 for cells with mutant EGFR to IC50 for cells with wildtype EGFR (Mut/WT) [24]: 154.4
ratio of IC50 for cells with mutant EGFR to IC50 for cells with wildtype EGFR (Mut/WT) [25]: 0.02412
ratio of IC50 for cells with mutant EGFR to IC50 for cells with wildtype EGFR (Mut/WT) [26]: 25.15
ratio of IC50 for cells with mutant EGFR to IC50 for cells with wildtype EGFR (Mut/WT) [27]: 33.62
Compound: CN(C)C/C=C/C(=O)Nc1cc2c(Nc3ccc(Cl)c(Br)c3)ncnc2cn1 [Tarlox-TKI]
